Here are results for 13 compounds from US9174998B2, “(6S,9aS)-N-benzyl-6-[(4-hydroxyphenyl)methyl]-4,7-dioxo-8-({6-[3-(piperazin-1-yl)azetidin-1-yl]pyridin-2-yl}methyl)-2-(prop-2-en-1-yl)-octahydro-1H-pyrazino[2,1-c][1,2,4]triazine-1-carboxamide compound” (Eisai R&D Management Co., Ltd., priority 2013, dated 2015).

Data set [1] deals with human chronic myologenous leukemia cell strain K562. The experiment in a line: Anti-tumor effect in human K562 subcutaneous transplantation model. Conditions: day 28; Dasatinib 5 mg/kg alone, oral qd, 5 days on/2 days off, two cycles.
Data set [2] is described as follows: Evaluation of solubility (DMSO stock into PBS, HPLC-UV). It is filed as physicochemical. Conditions: Dulbecco's phosphate-buffered saline pH 7, room temperature, about 15 minutes shaking, values greater than 200 μM regarded as 200 μM, read-out: Test Example 3 solubility. The essentials:
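Kinetic solubility: 20 mM DMSO stock spiked into Dulbecco's PBS pH 7, shaken about 15 min at room temperature, then suction-filtered; filtrate quantified by HPLC-UV against a 200 μM DMSO standard. Values above 200 μM are capped at 200 μM.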

Data set [3] can be described thus: PAMPA test (parallel artificial membrane permeability assay). Conditions: phosphate buffer pH 6.8, about 200 μM, about 5 hours, room temperature, read-out: Test Example 4 membrane permeation coefficient Pe. It is filed as in vitro ADME. In outline:
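Compounds at about 200 μM in pH 6.8 phosphate buffer with about 1% DMSO on the donor side. Transport across a lipid-precoated PVDF membrane with shaking at 350 rpm, room temperature, about 5 h. Donor and acceptor concentrations measured by HPLC-UV; Pe (cm/s) calculated from these.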

The nature of data set [4]: Evaluation of metabolic stability. In kind it is in vitro ADME, human. Particulars: 0.2 mg/mL HLM, 0.1 μM test substance, 15 minutes at 37° C., with vs without NADPH production. The essentials: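 Pooled human liver microsomes (0.2 mg/mL) in 0.1 M potassium phosphate pH 7.4 with EDTA, MgCl2 and an NADPH-generating system (NADP+, glucose-6-phosphate, G6PDH). Residual ratio by LC-MS/MS, comparing with versus without NADPH generation.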

The test system of another data set is Wnt signal. The data set is described as follows: Detection of Wnt signal (TOPglow luciferase reporter, LiCl-stimulated). It is filed as cell-based. Particulars: Homo sapiens; HEK293 clone carrying pNeo-TOP reporter; LiCl stimulation; luciferase luminescence; read-out: Test Example 1 IC50 (concentration required for inhibiting the Wnt signal activity by 50%). The essentials: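 Stable HEK293 clone carrying a TOPglow TCF/Wnt-responsive luciferase reporter, stimulated with 80 mM LiCl in the diluted sample medium alongside compound; luminescence read with Bright-Glo 6 h after addition. IC50 derived from activity scaled between LiCl-only wells (100%) and wells lacking both LiCl and sample (0%).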

Setting [5] is: aqueous buffer, kinetic from dmso stock.

A word on the solubility: it is how much of the substance goes into solution per volume.

The structures appear in SMILES notation. In brackets after ≈: the same amount, converted by molar mass. Where two headings read alike, the source gives them in different places.

`Cc1nc(Nc2ncc(C(=O)Nc3c(C)cccc3Cl)s2)cc(N2CCN(CCO)CC2)n1` [Dasatinib, reference compound]: in data set [1], the “the number of individuals in which a tumor was not observed by visual judgment/total number of mice” value was 0/9.
Regarding `C=CCN1CC(=O)N2[C@@H](Cc3ccc(O)cc3F)C(=O)N(Cc3cccc(N4CC(N5CCN(CC)[C@H](C)C5)C4)n3)C[C@@H]2N1C(=O)NCc1ccccc1` [Example 21, (6S,9aS)-N-Benzyl-8-((6-(3-((3R)-4-ethyl-3-methylpiperazin-1-yl)azetidin-1-yl)pyridin-2-yl)methyl)-6-((2-fluoro-4-hydroxyphenyl)methyl)-4,7-dioxo-2-(prop-2-en-1-yl)-octahydro-1H-pyrazino[2,1-c][1,2,4]triazine-1-carboxamide], the solubility in data set [2] amounted to 200 µM (≈ 148 µg/mL). Besides, in data set [3], the Papp worked out at 1.47 ×10⁻⁶ cm/s. The “Test Example 2 residual ratio of the test substance” value (“Test Example 2 residual ratio” for short) in data set [4] is 23%. Also, the IC50 in the data set with Wnt signal was found to be 63 nM.
In the case of `C=CCN1CC(=O)N2[C@@H](Cc3ccc(O)cc3)C(=O)N(Cc3ccc(F)c(N4CC(N5CCC(N(C)C)CC5)C4)n3)C[C@@H]2N1C(=O)NCc1ccccc1` [Reference Example 1, (6S,9aS)-N-Benzyl-8-((6-(3-(4-(dimethylamino)piperidin-1-yl)azetidin-1-yl)-5-fluoropyridin-2-yl)methyl)-6-((4-hydroxyphenyl)methyl)-4,7-dioxo-2-(prop-2-en-1-yl)-octahydro-1H-pyrazino[2,1-c][1,2,4]triazine-1-carboxamide], the solubility in data set [2] (setting [5]) was 193 µM (≈ 143 µg/mL). Besides, the Papp in data set [3] is 0.62 ×10⁻⁶ cm/s. For the same compound, the “Test Example 2 residual ratio” value in data set [4] was determined as 54%. For the same compound, the IC50 with Wnt signal is 240 nM.
As for `C=CCN1CC(=O)N2C(CN(Cc3cccc(N4CC(N5CCN(CC)[C@H](C)C5)C4)n3)C(=O)[C@@H]2Cc2ccc(O)cc2)N1C(=O)NCc1ccccc1` (stereo partly drawn) [Example 19, (6S,9aS)-N-Benzyl-8-((6-3-((3R)-4-ethyl-3-methylpiperazin-1-yl)azetidin-1-yl)pyridin-2-yl)methyl-6-((4-hydroxyphenyl)methyl)-4,7-dioxo-2-(prop-2-en-1-yl)-octahydro-1H-pyrazino[2,1-c][1,2,4]triazine-1-carboxamide], the solubility in data set [2] amounted to 200 µM (≈ 144 µg/mL). Moreover, in data set [3], the Papp is 0.91 ×10⁻⁶ cm/s. The “Test Example 2 residual ratio” value in data set [4] turned out to be 30%. For the same compound, the IC50 in the data set with Wnt signal is 230 nM.
Regarding `C=CCN1CC(=O)N2[C@@H](Cc3ccc(O)cc3F)C(=O)N(Cc3cccc(N4CC(N5CCN(CC)[C@@H](C)C5)C4)n3)C[C@@H]2N1C(=O)NCc1ccccc1` [Example 20, (6S,9aS)-N-Benzyl-8-((6-(3-((3S)-4-ethyl-3-methylpiperazin-1-yl)azetidin-1-yl)pyridin-2-yl)methyl)-6-((2-fluoro-4-hydroxyphenyl)methyl)-4,7-dioxo-2-(prop-2-en-1-yl)-octahydro-1H-pyrazino[2,1-c][1,2,4]triazine-1-carboxamide], in data set [2] (setting [5]), the solubility came to 197 µM (≈ 146 µg/mL). Also, the Papp in data set [3] was 2.17 ×10⁻⁶ cm/s. For the same compound, the “Test Example 2 residual ratio” value in data set [4] came to 23%. In the data set with Wnt signal, the IC50 turned out to be 61 nM.
The corresponding values for `C=CCN1CC(=O)N2[C@@H](Cc3ccc(O)cc3F)C(=O)N(Cc3ccc(F)c(N4CC(N5C[C@@H]6C[C@H]5CN6C(C)C)C4)n3)C[C@@H]2N1C(=O)NCc1ccccc1` [Reference Example 4, (6S,9aS)-N-Benzyl-6-((2-fluoro-4-hydroxyphenyl)methyl)-8-((5-fluoro-6-(3-((1S,4S)-5-(propan-2-yl)-2,5-diazabicyclo[2.2.1]heptan-2-yl)azetidin-1-yl)pyridin-2-yl)methyl)-4,7-dioxo-2-(prop-2-en-1-yl)-octahydro-1H-pyrazino[2,1-c][1,2,4]triazine-1-carboxamide] are 198 µM (≈ 152 µg/mL), 0.68 ×10⁻⁶ cm/s, 34% and 150 nM.
Consider `C=CCN1CC(=O)N2[C@@H](Cc3c(F)cc(O)cc3F)C(=O)N(Cc3cccc(N4CC(N5CCN(CC)[C@@H](C)C5)C4)n3)C[C@@H]2N1C(=O)NCc1ccccc1` [Example 22, (6S,9aS)-N-Benzyl-6-((2,6-difluoro-4-hydroxyphenyl)methyl)-8-((6-(3-((3S)-4-ethyl-3-methylpiperazin-1-yl)azetidin-1-yl)pyridin-2-yl)methyl)-4,7-dioxo-2-(prop-2-en-1-yl)-octahydro-1H-pyrazino[2,1-c][1,2,4]triazine-1-carboxamide], for which the solubility in data set [2] came out at 200 µM (≈ 152 µg/mL). For the same compound, in data set [3], the Papp is 0.57 ×10⁻⁶ cm/s. The “Test Example 2 residual ratio” value in data set [4] came out at 43%. Further, in the data set with Wnt signal, the IC50 was 180 nM.
With `C[C@H]1C2N(C(=O)CN(C)N2C(=O)NCc2ccccc2)[C@@H](Cc2ccc(O)cc2)C(=O)N1Cc1cccc2cccnc12` (stereo partly drawn) [Comparative Example 2, (6S,9S)-N-Benzyl-6-(4-hydroxybenzyl)-2,9-dimethyl-4,7-dioxo-8-(quinolin-8-ylmethyl)octahydro-1H-pyrazino[2,1-c][1,2,4]triazine-1-carboxamide, reference compound], the solubility in data set [2] (setting [5]) is 122 µM (≈ 70.6 µg/mL). Also, in data set [3], the Papp amounted to 0.85 ×10⁻⁶ cm/s. In addition, the “Test Example 2 residual ratio” value in data set [4] is on record as 0.6%. Moreover, the IC50 in the data set on Wnt signal was determined as 330 nM.
Turning to `C=CCN1CC(=O)N2[C@@H](Cc3ccc(O)cc3)C(=O)N(Cc3ccc(F)c(N4CC(N5CCN(CC)CC5)C4)n3)C[C@@H]2N1C(=O)NCc1ccccc1` [Example 7, (6S,9aS)-N-Benzyl-8-((6-(3-(4-ethylpiperazin-1-yl)azetidin-1-yl)-5-fluoropyridin-2-yl)methyl)-6-((4-hydroxyphenyl)methyl)-4,7-dioxo-2-(prop-2-en-1-yl)-octahydro-1H-pyrazino[2,1-c][1,2,4]triazine-1-carboxamide], the solubility in data set [2] (setting [5]) came out at 189 µM (≈ 137 µg/mL). Besides, the Papp in data set [3] is 2.77 ×10⁻⁶ cm/s. In addition, the “Test Example 2 residual ratio” value in data set [4] is 29%. In addition, the IC50 in the data set with Wnt signal came out at 95 nM.
On to `C=CCN1CC(=O)N2[C@@H](Cc3ccc(O)cc3)C(=O)N(Cc3cccc(N4CC(N5CCN(CC)[C@@H](C)C5)C4)n3)C[C@@H]2N1C(=O)NCc1ccccc1` [Example 18, (6S,9aS)-N-Benzyl-8-((6-(3-((3S)-4-ethyl-3-methylpiperazin-1-yl)azetidin-1-yl)pyridin-2-yl)methyl)-6-((4-hydroxyphenyl)methyl)-4,7-dioxo-2-(prop-2-en-1-yl)-octahydro-1H-pyrazino[2,1-c][1,2,4]triazine-1-carboxamide], for which the solubility in data set [2] turned out to be 200 µM (≈ 144 µg/mL). For the same compound, the Papp in data set [3] came out at 1.13 ×10⁻⁶ cm/s. Moreover, in data set [4], the “Test Example 2 residual ratio” value was found to be 37%. In addition, the IC50 in the data set on Wnt signal worked out at 320 nM.
Regarding `C=CCN1CC(=O)N2[C@@H](Cc3ccc(O)cc3)C(=O)N(Cc3cccc(N4CC(N5CCN(C)[C@@H](C)C5)C4)n3)C[C@@H]2N1C(=O)NCc1ccccc1` [Example 27, (6S,9aS)-N-Benzyl-8-((6-(3-((3S)-3,4-dimethylpiperazin-1-yl)azetidin-1-yl)pyridin-2-yl)methyl)-6-((4-hydroxyphenyl)methyl)-4,7-dioxo-2-(prop-2-en-1-yl)-octahydro-1H-pyrazino[2,1-c][1,2,4]triazine-1-carboxamide], the solubility in data set [2] (setting [5]) was found to be 199 µM (≈ 141 µg/mL). Moreover, the Papp in data set [3] was found to be 1.04 ×10⁻⁶ cm/s. In addition, the “Test Example 2 residual ratio” value in data set [4] is reported as 57%. In addition, in the data set with Wnt signal, the IC50 worked out at 400 nM.
The corresponding values for `C=CCN1CC(=O)N2[C@@H](Cc3ccc(O)cc3F)C(=O)N(Cc3cccc(N4CC(N5CC[C@@H](N(C)C)C5)C4)n3)C[C@@H]2N1C(=O)NCc1ccccc1` [Reference Example 2, (6S,9aS)-N-Benzyl-8-((6-(3-((3R)-3-(dimethylamino)pyrrolidin-1-yl)azetidin-1-yl)pyridin-2-yl)methyl)-6-((2-fluoro-4-hydroxyphenyl)methyl)-4,7-dioxo-2-(prop-2-en-1-yl)-octahydro-1H-pyrazino[2,1-c][1,2,4]triazine-1-carboxamide] are 195 µM (≈ 142 µg/mL), 0.65 ×10⁻⁶ cm/s, 51% and 330 nM.
Consider `C=CCN1CC(=O)N2[C@@H](Cc3ccc(O)cc3F)C(=O)N(Cc3cccc(N4CC(N5CCN(C)CC5)C4)n3)C[C@@H]2N1C(=O)NCc1ccccc1` [Example 3, (6S,9aS)-N-Benzyl-6-((2-fluoro-4-hydroxyphenyl)methyl)-8-((6-(3-(4-methylpiperazin-1-yl)azetidin-1-yl)pyridin-2-yl)methyl)-4,7-dioxo-2-(prop-2-en-1-yl)-octahydro-1H-pyrazino[2,1-c][1,2,4]triazine-1-carboxamide], for which the solubility in data set [2] amounted to 200 µM (≈ 142 µg/mL). The Papp in data set [3] came to 1.33 ×10⁻⁶ cm/s. For the same compound, the “Test Example 2 residual ratio” value in data set [4] stood at 54%. For the same compound, the IC50 in the data set with Wnt signal worked out at 150 nM.
